Holding throughout (type): in vivo, mouse
The test system of one assay is Ephx2 mRNA. In words: Quantitative RT-PCR of Ephx2 mRNA after maternal glyphosate exposure. To be noted: juvenile offspring (P28) after maternal glyphosate exposure vs water. From the text: Gene expression analysis by quantitative real-time PCR. At juvenile (P28) stage, mice were sacrificed, and their brains were removed for measurement of gene expression of Ephx2 mRNA. Brain regions such as PFC, hippocampus, and striatum were dissected from brain on ice. A quantitative RT-PCR system (Step One Plus, Thermo Fisher Scientific, Yokohama, Japan) was used to measure mRNAs. The specific mRNA transcripts were quantified by TaqManGene Expression assays (Thermo Fisher Scientific, Yokohama, Japan). Expression levels of Ephx2 (Mm01313813_m1) was measured in brain tissue. Total RNA was extracted by use of an RNeasy Mini Kit (Qiagen, Hilden, Germany). The purity of total RNA was assessed by Biophotometer plus (Eppendorf, Hamburg, Germany). The RNA samples were used in the first strand cDNA synthesis with High Capacity cDNA Reverse Transcription Kit (#4368813 Thermo Fisher Scientific, Yokohama, Japan). All samples were tested in triplicate and average values were used for quantification. The average values were normalized to Vic-labeled Actb mRNA (Cat #4352341E: pre-developed TaqMan Assay Reagents, Thermo Fisher Scientific, Yokohama, Japan).

The test system of a further assay is sEH. Nature of the assay: Western blot of sEH in brain regions of juvenile offspring after MIA. The method, then: Administration of poly(I:C) into pregnant mice. The schedule of poly(I:C) treatment was performed as reported previously (13,36-39). The pregnant mice were injected intraperitoneally (i.p.) for six consecutive days from E12 to E17 with poly(I:C) (5.0 mg/kg/day, Sigma-Aldrich Co. Ltd., St. Louis, MO, USA) dissolved in physiological saline, or an equivalent volume (5 ml/kg) of saline. The male offspring were separated from their mothers at wearing (P21), and mice were caged each three-five in the groups in clear polycarbonate cage (22.5×33.8×14.0 cm). Mice were housed under controlled temperatures and 12-hour light/dark cycles (lights on between 07:00-19:00 h), with ad libitum food and water.
Collection of brain samples and oxylipin profiling. […]
Western blot analysis. […] 50 μg of protein were measured using the DC protein assay kit (Bio-Rad), and incubated for 5 min at 95° C., with an equal volume of 125 mM Tris-HCl, pH6.8, 20% glycerol, 0.1% bromophenol blue, 10% β-mercaptoethanol, 4% sodium dodecyl sulfate, and subjected to sodium dodecyl sulfate polyacrylamide gel electrophoresis, using 7.5% or AnyKD mini-gels (Mini-PROTEAN® TGX™ Precast Gel; Bio-Rad, CA, USA). […] After final three washes with TBST, bands were detected using enhanced chemiluminescence (ECL) prime Western Blotting Detection system (GE Healthcare Bioscience). […]

The next assay concerns GAD67. Nature of the assay: GAD67 immunohistochemistry in mPFC, offspring after MIA. To be noted: adult offspring of poly(I:C)-treated mice vs saline-treated group. The method, then: Immunohistochemistry. Immunohistochemistry of PV was performed as reported previously (37,39,59,60). Mice were anesthetized with 5% isoflurane and sodium pentobarbital (50 mg/kg), and perfused transcardially with 10 mL of physiological saline, followed by 40 mL of ice-cold 4% paraformaldehyde in 0.1M phosphate buffer (pH 7.4). Brains were removed from the skulls and post fixed overnight at 4° C. in the same fixative. For the immunohistochemical analysis, 50 μm-thick serial, coronal sections of brain tissue were cut in ice-cold 0.01M phosphate buffered saline (pH 7.5) using a vibrating blade microtome (VT1000s, Leica Microsystems, Tokyo, Japan). Free-floating sections were treated with 0.3% H2O2 in 50 mM Tris-HCl saline (TBS) for 30 min and were blocked in TBS containing 0.2% Triton X-100 (TBST) and 1.5% normal serum for 1 h at room temperature. […] The sections were imaged, and the staining intensity of PV (or GADO immunoreactivity in the inflalimbic (IL) and prelimbic (PrL) regions of mPFC was analyzed using a light micro-scope equipped with a CCD camera (Olympus IX70, Tokyo, Japan) and the SCION IMAGE software package. Images of sections within mPFC region were captured using a 100× objective with a Keyence BZ-X710 microscope (Keyence Corporation, Osaka, Japan).

Results on two compounds are retold here after patent publication US12357598B2, “Treatment of neurodevelopmental disorders” (THE REGENTS OF THE UNIVERSITY OF CALIFORNIA, priority 2018, dated 2025).

As for `O=C(O)CNCP(=O)(O)O` [glyphosate], the “gene expression of sEH (or Ephx2) mRNA in the PFC, hippocampus, and striatum” value with Ephx2 mRNA was “significantly higher”.
As to “polyriboinosinic-polyribocytidilic acid [Poly(I:C)]”, the “sEH protein in striatum and hippocampus (CA1, CA3, DG)” value with sEH (poly(I:C) 5 mg/kg/day E12-E17) was “no changes”. In addition, the “levels of sEH protein in the PFC” value in the assay with sEH (poly(I:C) 5 mg/kg/day E12-E17, vs saline-treated mice) is “significantly higher”. Also, in the assay with GAD67, the “GAD67-IR in the PrL and IL of mPFC” value is “significantly lower”.
